Experimental findings from EP0326331B1, “Substituted quinolines and cinnolines” (Dow AgroSciences LLC, priority 1988, dated 1989) are described below.

Common to all, as to assay type: in vivo
In assay [1] the test system is Twospotted spider mites (Tetranychus urticae Koch). The assay is described as follows: Mite/insect screen, SM. The following applies: for mortality at 200 ppm / mortality at 400 ppm: Tetranychus urticae, foliar, percent mortality, foliar spray on squash, read-out: SM RESULTS %; for mortality at 200 ppm: rate 200 ppm; for mortality at 400 ppm: rate 400 ppm; for activity as miticides: summary statement in the description. The method, boiled down: (§1)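 Foliar spray to runoff (10 psi), 1 h drying; aqueous dilutions from acetone/alcohol emulsifier stock. Mortality (%) after standard exposure.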

Assay [2] concerns Puccinia recondita tritici (leaf rust). The assay is described as follows: Test 1 greenhouse foliar spray screen, leaf rust on wheat. The following applies: for LEAF RUST: disease control rating, foliar spray on wheat, 400 ppm (+++ at 100 ppm); for pest or weed control at 400 ppm: Puccinia recondita, foliar, Test 1, foliar spray on wheat, disease control rating at 400 ppm / 100 ppm.

Assay [3] has as its system Erysiphe graminis tritici (powdery mildew). In words: Test 1 greenhouse foliar spray screen, powdery mildew on wheat. The following applies: for POWD MDEW: disease control rating, foliar spray on wheat, 400 ppm (+++ at 100 ppm); for pest or weed control at 400 ppm: Blumeria graminis, foliar, Test 1, foliar spray on wheat, disease control rating at 400 ppm / 100 ppm, read-out: POWD MDEW.

The next assay has as its system corn rootworm. The assay is described as follows: Mite/insect screen, CRW. The following applies: percent mortality, read-out: CRW RESULTS %; for mortality at 12 ppm: CRW rate 12.00 ppm; for mortality at 24 ppm: CRW rate 24.00 ppm. A digest of the protocol:
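Following dissolution in equal parts acetone and alcohol with 23 g/L and 13 g/L emulsifier blends and dilution with water, test solutions were scored for percent mortality at the end of standard exposures.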

Assay [4] deals with Pyricularia oryzae (rice blast). In words: whole plant or invertebrate. The following applies: for RICE BLAST: disease control rating, foliar spray on rice, 400 ppm (+++ at 100 ppm); for pest or weed control at 400 ppm: Pyricularia oryzae, foliar, read-out: RICE BLAST, Test 1, foliar spray on rice, disease control rating at 400 ppm / 100 ppm.
In assay [5] the test system is Botrytis cinerea (gray mold). In words: Test 1 greenhouse foliar spray screen, gray mold on grape berries. The following applies: for GRAY MOLD: disease control rating, spray on grape berries, 400 ppm (+++ at 100 ppm); for pest or weed control at 400 ppm: Botrytis cinerea, foliar, Test 1, spray on grape berries, disease control rating at 400 ppm / 100 ppm.
The test system of assay [6] is southern armyworm (Spodopetra eridania Cramer). The assay is described as follows: Mite/insect screen, SAW. The following applies: Spodoptera eridania, foliar, percent mortality, foliar spray on squash, read-out: SAW RESULTS %; for mortality at 200 ppm: rate 200 ppm; for mortality at 400 ppm: rate 400 ppm. The method, boiled down:
as §1

The subject of assay [7] is Pseudoperonospora cubensis (downy mildew). In words: Test 1 greenhouse foliar spray screen, downy mildew on squash. The conditions noted are these: for DOWN MDEW: disease control rating, foliar spray on squash, 400 ppm (+++ at 100 ppm); for pest or weed control at 400 ppm: Pseudoperonospora cubensis, foliar, Test 1, foliar spray on squash, disease control rating at 400 ppm / 100 ppm, read-out: DOWN MDEW.

Assay [8] has as its system melon aphids (Aphis gossypii Glover). The assay is described as follows: Mite/insect screen, MA. The following applies: Aphis gossypii, foliar, percent mortality, foliar spray on squash, read-out: MA RESULTS %; for mortality at 200 ppm: rate 200 ppm; for mortality at 400 ppm: rate 400 ppm. A digest of the protocol:
as §1

`Cc1cc(C)c2nccc(NCCC3CCCCC3)c2c1` [Example 178, N-(2-cyclohexylethyl)-6,8-dimethyl-4-quinolinamine]: the mortality at 200 ppm in [1], in assay [6] and in assay [8] was 0% throughout. Also, the mortality at 400 ppm in assay [1], in assay [6] and in [8] was 0% in each case. In addition, the “LEAF RUST” value in assay [2] is reported as “++ (90-100% control at 400 ppm)”. The “POWD MDEW” value in assay [3] is on record as “- (0-19% control at 400 ppm)”. Also, in the assay on corn rootworm, the mortality at 12 ppm is 0%. Further, the mortality at 24 ppm with corn rootworm was determined as 0%. In addition, in assay [4], the “RICE BLAST” value is on record as “+ (20-89% control at 400 ppm)”. Besides, in assay [5], the “GRAY MOLD” value is “- (0-19% control at 400 ppm)”. Further, the “DOWN MDEW” value in assay [7] is listed as “+++ (90-100% control at 100 ppm)”.
Take `CC(=O)N(CCc1ccc(Cl)cc1)c1cc(N(CCc2ccc(Cl)cc2)C(C)=O)c2ccccc2n1` [Example 182, N,N'-(2,4-quinolinediyl)bis[N-[2-(4-chlorophenyl)ethyl]acetamide]]: the mortality at 200 ppm in [1], in [6] and in [8] was 0% in each case. The mortality at 400 ppm in assay [1], in assay [6] and in assay [8] was 0% in each case. Besides, the “LEAF RUST” value in assay [2] is listed as “- (0-19% control at 400 ppm)”. For the same compound, in assay [3], the “POWD MDEW” value is given as “- (0-19% control at 400 ppm)”. Further, in the assay on corn rootworm, the mortality at 12 ppm was 0%. Further, in the assay with corn rootworm, the mortality at 24 ppm is 0%. Also, the “RICE BLAST” value in [4] was “+ (20-89% control at 400 ppm)”. Also, in [5], the “GRAY MOLD” value was “- (0-19% control at 400 ppm)”. Also, in [7], the “DOWN MDEW” value is “- (0-19% control at 400 ppm)”.
For `Clc1ccc(CCNc2ccc3nccc(NCCc4ccc(Cl)cc4)c3c2)cc1` [Example 185, N,N'-bis[2-(4-chlorophenyl)ethyl]-4,6-quinolinediamine], in assay [1], the mortality at 200 ppm amounted to 0% and the mortality at 400 ppm was 0%. In [2], the “LEAF RUST” value was “+ (20-89% control at 400 ppm)”. The “POWD MDEW” value in [3] was “- (0-19% control at 400 ppm)”. Also, in the assay on corn rootworm, the mortality at 12 ppm amounted to 0% and the mortality at 24 ppm stood at 0%. Besides, the “RICE BLAST” value in [4] is on record as “+ (20-89% control at 400 ppm)”. For the same compound, in assay [5], the “GRAY MOLD” value is “- (0-19% control at 400 ppm)”. For the same compound, in [6], the mortality at 200 ppm stood at 0% and the mortality at 400 ppm was 0%. Moreover, the “DOWN MDEW” value in assay [7] is reported as “+ (20-89% control at 400 ppm)”. In assay [8], the mortality at 200 ppm amounted to 0% and the mortality at 400 ppm came out at 0%.
`Fc1cccc2c(NCCc3ccc(Cl)cc3)cc(NCCc3ccc(Cl)cc3)nc12` [Example 188, N,N'-bis[2-(4-chlorophenyl)ethyl]-8-fluoro-2,4-quinolinediamine]: the mortality at 400 ppm in [1], in [6] and in assay [8] was 0% throughout. Further, the pest or weed control at 400 ppm fell in the range of 20 to 89% in assay [2]; 0 to 19% in assay [3]; 90 to 100% in assay [4]; 0 to 19% in assay [5]; 90 to 100% in assay [7]. Besides, the mortality at 24 ppm in the assay on corn rootworm was 0%.
With `CC(=O)N(CCc1ccc(Cl)cc1)c1ccc2c(N(CCc3ccc(Cl)cc3)C(C)=O)ccnc2c1` [Example 191, N,N'-(4,7-quinolinediyl)bis[N-[2-(4-chlorophenyl)ethyl]acetamide]], the mortality at 200 ppm in assay [1], in [6] and in assay [8] was 0% in each case. In addition, the mortality at 400 ppm in assay [1], in assay [6] and in assay [8] was 0% in each case. The pest or weed control at 400 ppm in assay [2] was in the range of 90 to 100%; in assay [3], 0 to 19%; in assay [4] it was 20 to 89%; in assay [5], 0 to 19%; in assay [7], 0 to 19%. The mortality at 12 ppm in the assay on corn rootworm amounted to 0%. Also, the mortality at 24 ppm with corn rootworm worked out at 0%.
Regarding `Cc1ccc(CCOc2cc(Cl)nc3c(F)cccc23)cc1` [Example 193, 2-chloro-8-fluoro-4-[2-(4-methylphenyl)ethoxy]quinoline], the mortality at 200 ppm in assay [1], in assay [6] and in assay [8] was 0% throughout. The mortality at 400 ppm in [1], in assay [6] and in assay [8] was 0% each time. Also, the pest or weed control at 400 ppm is 20 to 89% in assay [2]; 0 to 19% in assay [3]; 0 to 19% in [4]; 0 to 19% in assay [5]; 0 to 19% in [7]. Moreover, the mortality at 12 ppm with corn rootworm worked out at 0%. In addition, the mortality at 24 ppm with corn rootworm came out at 0%.
For `Clc1cc(Cl)c2c(OCCc3ccc(-c4ccccc4)cc3)ccnc2c1` [Example 194, 5,7-dichloro-4-[2-(1,1'-biphenyl)-4-ylethoxy]quinoline], the mortality at 200 ppm in assay [1], in assay [6] and in assay [8] was 0% throughout. Also, the mortality at 400 ppm in [1], in [6] and in [8] was 0% each time. Also, the pest or weed control at 400 ppm in assay [2] fell in the range of 0 to 19%; in assay [3], 20 to 89%; in assay [4], 0 to 19%; in [5] it was 0 to 19%; in assay [7] it was 0 to 19%. For the same compound, the mortality at 12 ppm in the assay on corn rootworm was determined as 0%. Besides, the mortality at 24 ppm in the assay with corn rootworm was 0%.
For the compound `COc1cccc(CCOc2ccnc3c(F)cccc23)c1` [Example 195, 4-[2-(3-methoxyphenyl)ethoxy]-8-fluoroquinoline], the mortality at 400 ppm in assay [1], in assay [6] and in assay [8] was 0% in each case. The pest or weed control at 400 ppm in assay [2] lay in the range of 90 to 100%; in assay [3], 90 to 100%; in assay [4] it was 90 to 100%; in assay [5], 0 to 19%; in assay [7] it was 90 to 100%. In the assay on corn rootworm, the mortality at 24 ppm amounted to 0%.
With `COc1ccc(CCOc2ccnc3c(F)cccc23)cc1` [Example 196, 8-fluoro-4-[2-(4-methoxyphenyl)ethoxy]quinoline], the mortality at 400 ppm in assay [1] turned out to be 100%; in assay [6] it was 0%; in [8] it was 100%. Also, the activity as miticides entry in assay [1] is given as “particularly excellent activity”. For the same compound, the pest or weed control at 400 ppm in [2] lay in the range of 90 to 100%; in assay [3], 90 to 100%; in [4] it was 90 to 100%; in [5], 0 to 19%; in [7] it was 90 to 100%. Moreover, in the assay on corn rootworm, the mortality at 24 ppm is 0%.
Take `Fc1cccc2c(OCCc3cccc(Oc4ccccc4)c3)ccnc12` [Example 197, 8-fluoro-4-[2-(3-phenoxyphenyl)ethoxy]quinoline]: the mortality at 400 ppm was determined as 90% in [1], 80% in assay [6] and 80% in assay [8]. For the same compound, the activity as miticides entry in [1] is given as “particularly excellent activity”. In addition, the pest or weed control at 400 ppm is 90 to 100% in assay [2]; 90 to 100% in assay [3]; 90 to 100% in assay [4]; 0 to 19% in assay [5]; 20 to 89% in assay [7]. In addition, in the assay with corn rootworm, the mortality at 24 ppm came to 0%.
